Target: JAK3 (Homo sapiens (Human), UniProt P52333)
Assay: Biochemical JAK3 kinase assay (LanthaScreen)
Conditions: not given
Outline: (§1)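 GST-JAK + GFP-STAT1 peptide, HEPES pH 7.5/MgCl2/EGTA/Brij-35 buffer; cpd preincubation 1 h RT; ATP start, 1 h RT; stop with 10 mM EDTA + 2 nM Tb-anti-pSTAT1; TR-FRET 520/495. 4-parameter IC50 → pKi (Cheng-Prusoff).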

Chain of JAK3 (P52333 whole entry): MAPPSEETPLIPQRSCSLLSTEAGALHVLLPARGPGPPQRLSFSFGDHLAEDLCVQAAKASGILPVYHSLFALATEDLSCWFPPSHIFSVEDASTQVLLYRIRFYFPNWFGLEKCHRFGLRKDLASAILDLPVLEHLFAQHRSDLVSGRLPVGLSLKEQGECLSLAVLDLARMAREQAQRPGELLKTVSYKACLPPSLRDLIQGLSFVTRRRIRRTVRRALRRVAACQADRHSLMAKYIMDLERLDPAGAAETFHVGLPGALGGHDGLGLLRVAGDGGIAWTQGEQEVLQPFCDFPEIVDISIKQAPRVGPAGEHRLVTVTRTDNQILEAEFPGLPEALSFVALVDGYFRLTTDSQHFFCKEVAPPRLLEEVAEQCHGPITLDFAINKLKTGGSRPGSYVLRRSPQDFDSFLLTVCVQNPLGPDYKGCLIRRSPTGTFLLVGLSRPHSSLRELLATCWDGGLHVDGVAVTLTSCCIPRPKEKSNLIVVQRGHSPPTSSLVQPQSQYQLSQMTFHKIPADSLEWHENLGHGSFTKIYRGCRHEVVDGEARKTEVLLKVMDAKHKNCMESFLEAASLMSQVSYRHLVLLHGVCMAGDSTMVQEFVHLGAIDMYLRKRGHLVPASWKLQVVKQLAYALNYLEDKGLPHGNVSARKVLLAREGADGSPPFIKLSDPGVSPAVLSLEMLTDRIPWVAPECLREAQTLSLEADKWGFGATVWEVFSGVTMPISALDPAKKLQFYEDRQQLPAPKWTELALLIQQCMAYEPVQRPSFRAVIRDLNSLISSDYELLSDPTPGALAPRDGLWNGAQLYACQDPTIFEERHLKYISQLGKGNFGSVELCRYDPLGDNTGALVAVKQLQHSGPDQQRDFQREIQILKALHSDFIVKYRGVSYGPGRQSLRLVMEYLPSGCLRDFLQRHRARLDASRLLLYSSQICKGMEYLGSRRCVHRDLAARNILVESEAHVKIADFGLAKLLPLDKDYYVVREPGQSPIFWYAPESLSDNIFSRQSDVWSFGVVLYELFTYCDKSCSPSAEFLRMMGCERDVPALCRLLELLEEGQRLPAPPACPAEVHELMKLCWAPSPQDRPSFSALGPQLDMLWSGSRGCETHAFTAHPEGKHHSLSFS

Row | SMILES | JAK 3 (pKi)
1 | C=CC(=O)N1CC(CCn2c(=O)ccc3cnc(Nc4ccc(C5CCN(C)CC5)cc4)nc32)C1 [Example 77] | B (B represents pKi value between 9 and 10 (Ki between 1 nM and 0.1 nM))
2 | C=CC(=O)N1CC(CCn2c(=O)ccc3cnc(Nc4cnn(C5CCOCC5)c4)nc32)C1 [Example 81] | B (B represents pKi value between 9 and 10 (Ki between 1 nM and 0.1 nM))
3 | C=CC(=O)N1CCN(CCn2c(=O)ccc3cnc(Nc4ccc(N5C[C@@H](C)N(C)[C@@H](C)C5)cc4)nc32)CC1 [Example 248] | B (B represents pKi value between 9 and 10 (Ki between 1 nM and 0.1 nM))
4 | C=CC(=O)N1CCN(CCn2c(=O)ccc3cnc(Nc4ccc(N5C[C@@H](C)N(C)[C@@H](C)C5)cc4)nc32)[C@@H](C)C1 [Example 249] | B (B represents pKi value between 9 and 10 (Ki between 1 nM and 0.1 nM))
5 | C=CC(=O)N1CCN(CCn2c(=O)ccc3cnc(Nc4cnn(C5CCOCC5)c4)nc32)[C@@H](C)C1 [Example 250] | B (B represents pKi value between 9 and 10 (Ki between 1 nM and 0.1 nM))
6 | C=CC(=O)N1CCN(CCn2c(=O)ccc3cnc(Nc4ccc(N5CCN(C)[C@@H](C)C5)cc4)nc32)[C@@H](C)C1 [Example 251] | B (B represents pKi value between 9 and 10 (Ki between 1 nM and 0.1 nM))
7 | C=CC(=O)N1CCN(CCn2c(=O)ccc3cnc(Nc4ccc(N5CCN(C)[C@@H](C)C5)nc4)nc32)[C@@H](C)C1 [Example 252] | B (B represents pKi value between 9 and 10 (Ki between 1 nM and 0.1 nM))

Same assay, conditions: selectivity JAK3 over JAK1, difference of pKi

Row | SMILES | JAK3 (pKi)-JAK1 (pKi)
8 | C=CC(=O)N1CC(CCn2c(=O)ccc3cnc(Nc4ccc(C5CCN(C)CC5)cc4)nc32)C1 [Example 77] | A (A represents a value of 3 or above)
9 | C=CC(=O)N1CC(CCn2c(=O)ccc3cnc(Nc4cnn(C5CCOCC5)c4)nc32)C1 [Example 81] | A (A represents a value of 3 or above)

Same assay, conditions: selectivity, difference of pKi values

Row | SMILES | JAK3 (pKi)-JAK1 (pKi)
10 | C=CC(=O)N1CCN(CCn2c(=O)ccc3cnc(Nc4ccc(N5C[C@@H](C)N(C)[C@@H](C)C5)cc4)nc32)CC1 [Example 248] | A (A represents a value of 3 or above)
11 | C=CC(=O)N1CCN(CCn2c(=O)ccc3cnc(Nc4ccc(N5C[C@@H](C)N(C)[C@@H](C)C5)cc4)nc32)[C@@H](C)C1 [Example 249] | A (A represents a value of 3 or above)
12 | C=CC(=O)N1CCN(CCn2c(=O)ccc3cnc(Nc4cnn(C5CCOCC5)c4)nc32)[C@@H](C)C1 [Example 250] | A (A represents a value of 3 or above)
13 | C=CC(=O)N1CCN(CCn2c(=O)ccc3cnc(Nc4ccc(N5CCN(C)[C@@H](C)C5)cc4)nc32)[C@@H](C)C1 [Example 251] | A (A represents a value of 3 or above)
14 | C=CC(=O)N1CCN(CCn2c(=O)ccc3cnc(Nc4ccc(N5CCN(C)[C@@H](C)C5)nc4)nc32)[C@@H](C)C1 [Example 252] | A (A represents a value of 3 or above)

Test system: IL-2 stimulated STAT5 phosphorylation in Tall-1 human T cell line (JAK3)
Assay: Cellular JAK3 potency assay: inhibition of IL-2 stimulated pSTAT5 in Tall-1 T cells
Assay type: cell-based
Conditions: IL-2 stimulated pSTAT5, Tall-1 T cells
Outline: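 AlphaLISA SureFire Ultra measures STAT5 Tyr694/699 phosphorylation in lysed Tall-1 human T cells. Cells were exposed to compound for 1 h at 37 °C before a 30 min IL-2 challenge (300 ng/ml final). Values are pIC50 means with standard deviation from signal-versus-concentration curves.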

Row | SMILES | Tall-1 (pIC50)
15 | C=CC(=O)N1CC(CCn2c(=O)ccc3cnc(Nc4ccc(C5CCN(C)CC5)cc4)nc32)C1 [Example 77] | B (B represents a pC50 value between 6.7 (included) and 7.5 (IC50 between 200 nM and 32 nM))
16 | C=CC(=O)N1CC(CCn2c(=O)ccc3cnc(Nc4cnn(C5CCOCC5)c4)nc32)C1 [Example 81] | B (B represents a pC50 value between 6.7 (included) and 7.5 (IC50 between 200 nM and 32 nM))

Same assay, conditions: IL-2 stimulated pSTAT5 in Tall-1 T cells

Row | SMILES | Tall-1 (pIC50)
17 | C=CC(=O)N1CCN(CCn2c(=O)ccc3cnc(Nc4ccc(N5C[C@@H](C)N(C)[C@@H](C)C5)cc4)nc32)CC1 [Example 248] | A (A represents a pIC50 value≥7.5 (IC50≤32 nM))
18 | C=CC(=O)N1CCN(CCn2c(=O)ccc3cnc(Nc4ccc(N5C[C@@H](C)N(C)[C@@H](C)C5)cc4)nc32)[C@@H](C)C1 [Example 249] | A (A represents a pIC50 value≥7.5 (IC50≤32 nM))
19 | C=CC(=O)N1CCN(CCn2c(=O)ccc3cnc(Nc4cnn(C5CCOCC5)c4)nc32)[C@@H](C)C1 [Example 250] | B (B represents a pC50 value between 6.7 (included) and 7.5 (IC50 between 200 nM and 32 nM))
20 | C=CC(=O)N1CCN(CCn2c(=O)ccc3cnc(Nc4ccc(N5CCN(C)[C@@H](C)C5)cc4)nc32)[C@@H](C)C1 [Example 251] | B (B represents a pC50 value between 6.7 (included) and 7.5 (IC50 between 200 nM and 32 nM))
21 | C=CC(=O)N1CCN(CCn2c(=O)ccc3cnc(Nc4ccc(N5CCN(C)[C@@H](C)C5)nc4)nc32)[C@@H](C)C1 [Example 252] | B (B represents a pC50 value between 6.7 (included) and 7.5 (IC50 between 200 nM and 32 nM))

Target: Tyk2 (Homo sapiens (Human), UniProt P29597)
Sequence (P29597 whole entry): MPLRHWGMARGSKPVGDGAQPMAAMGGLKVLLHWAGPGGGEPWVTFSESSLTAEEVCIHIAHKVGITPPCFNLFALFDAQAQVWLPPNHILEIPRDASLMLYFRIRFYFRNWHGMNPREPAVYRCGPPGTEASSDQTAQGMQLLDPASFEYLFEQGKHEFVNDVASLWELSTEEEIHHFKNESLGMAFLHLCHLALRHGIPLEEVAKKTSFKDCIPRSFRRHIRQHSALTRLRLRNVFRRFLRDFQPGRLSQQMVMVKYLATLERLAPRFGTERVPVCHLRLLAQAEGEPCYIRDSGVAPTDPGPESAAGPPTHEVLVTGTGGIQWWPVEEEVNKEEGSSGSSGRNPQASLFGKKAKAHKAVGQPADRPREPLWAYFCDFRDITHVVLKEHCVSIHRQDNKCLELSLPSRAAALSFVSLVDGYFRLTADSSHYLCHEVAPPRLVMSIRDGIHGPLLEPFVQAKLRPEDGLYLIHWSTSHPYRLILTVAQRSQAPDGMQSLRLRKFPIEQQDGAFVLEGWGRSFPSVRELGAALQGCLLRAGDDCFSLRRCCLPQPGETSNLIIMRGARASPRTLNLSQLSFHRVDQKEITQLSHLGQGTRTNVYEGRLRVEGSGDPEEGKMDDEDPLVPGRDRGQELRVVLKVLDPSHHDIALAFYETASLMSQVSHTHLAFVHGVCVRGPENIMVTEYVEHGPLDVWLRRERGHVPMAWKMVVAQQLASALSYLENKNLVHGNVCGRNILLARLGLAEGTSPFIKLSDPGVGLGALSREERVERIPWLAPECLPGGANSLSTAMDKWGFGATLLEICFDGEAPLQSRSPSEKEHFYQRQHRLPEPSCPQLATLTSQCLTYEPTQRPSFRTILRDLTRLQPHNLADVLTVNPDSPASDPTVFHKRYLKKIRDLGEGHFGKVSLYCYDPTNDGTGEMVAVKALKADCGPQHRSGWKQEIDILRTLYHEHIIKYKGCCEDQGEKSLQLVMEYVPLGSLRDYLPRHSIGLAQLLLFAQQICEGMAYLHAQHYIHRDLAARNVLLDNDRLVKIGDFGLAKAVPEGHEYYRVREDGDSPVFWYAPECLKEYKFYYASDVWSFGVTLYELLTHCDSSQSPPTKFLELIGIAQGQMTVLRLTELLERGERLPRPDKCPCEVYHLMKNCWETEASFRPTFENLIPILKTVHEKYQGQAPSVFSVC
Assay: Biochemical Tyk2 kinase assay (LanthaScreen)
Conditions: not given
Outline: as §1

Row | SMILES | Tyk 2 (pKi)
22 | C=CC(=O)N1CCN(CCn2c(=O)ccc3cnc(Nc4ccc(N5C[C@@H](C)N(C)[C@@H](C)C5)cc4)nc32)CC1 [Example 248] | E (E represents a pKi value of 7 or below (Ki of 100 nM or above))
23 | C=CC(=O)N1CCN(CCn2c(=O)ccc3cnc(Nc4ccc(N5C[C@@H](C)N(C)[C@@H](C)C5)cc4)nc32)[C@@H](C)C1 [Example 249] | E (E represents a pKi value of 7 or below (Ki of 100 nM or above))
24 | C=CC(=O)N1CCN(CCn2c(=O)ccc3cnc(Nc4cnn(C5CCOCC5)c4)nc32)[C@@H](C)C1 [Example 250] | E (E represents a pKi value of 7 or below (Ki of 100 nM or above))
25 | C=CC(=O)N1CCN(CCn2c(=O)ccc3cnc(Nc4ccc(N5CCN(C)[C@@H](C)C5)cc4)nc32)[C@@H](C)C1 [Example 251] | E (E represents a pKi value of 7 or below (Ki of 100 nM or above))
26 | C=CC(=O)N1CCN(CCn2c(=O)ccc3cnc(Nc4ccc(N5CCN(C)[C@@H](C)C5)nc4)nc32)[C@@H](C)C1 [Example 252] | E (E represents a pKi value of 7 or below (Ki of 100 nM or above))

Test system: Caco-2 cell monolayers
Assay: Caco-2 permeation assay
Assay type: in vitro ADME
Conditions: 5 μM, A-B direction, with Verapamil (25 μM)
Description: Assay 4: Caco-2 Permeation Assay
The Caco-2 permeation assay was performed to model the ability of test compounds to pass through the intestine and get into the blood stream after oral administration. The rate at which test compounds in solution permeate a cell monolayer designed to mimic the tight junction of human small intestinal monolayers was determined.
CacoReady 24-well transwell plates were obtained from ADMEcell (Alameda, Calif.). The compounds were evaluated at a concentration of 5 μM from 10 mM DMSO stock solutions in duplicate (n=2). The passive permeability of the compounds tested was evaluated using Caco-2 cell monolayers along with Verapamil (25 μM) to inhibit P-gp transport proteins in the apical to basolateral (A-B) direction. The experiment was conducted in a 37° C., 5% CO2 incubator. Caco-2 culture media consisted of standard filtered DMEM, FCS 10%, L-Glutamine 1% and PenStrep 1%. Basal assay plate was prepared by adding 750 μL of transport buffer to A-B wells. A CacoReady™ plate was prepared by removing the Caco-2 media from the apical wells and replacing with fresh transport media (200 μL repeated for a total of 3 washes). Blank media (200 μL) was then replaced with diluted compound for A-B wells. To begin the incubation, the basal plate was removed from the incubator and the apical section was added on top of it. Samples (40 μL) were collected from the apical and basal compartments for time zero (t0). Samples were collected again after 120 minutes (t120) from the apical and basal compartments. All samples were diluted and prepared for bioanalysis by LC-MS/MS. The permeation coefficient (Kp, mean A to B+ Verapamil Papparent) in cm/sec was calculated as dQ (flux)/(dt×Area×concentration).
In this assay, a Kp value less than about 5×10^−6 cm/sec is considered favorable to minimize systemic exposure and target the colon. A Kp value less than about 10×10^−6 cm/sec may also be sufficient to minimize systemic exposure and target the colon.

Row | SMILES | Caco Kp
27 | C=CC(=O)N1CC(CCn2c(=O)ccc3cnc(Nc4ccc(C5CCN(C)CC5)cc4)nc32)C1 [Example 77] | A (A represents a value below 5×10^−6 cm/sec)
28 | C=CC(=O)N1CC(CCn2c(=O)ccc3cnc(Nc4cnn(C5CCOCC5)c4)nc32)C1 [Example 81] | A (A represents a value below 5×10^−6 cm/sec)

Target: JAK1 (Homo sapiens (Human), UniProt P23458)
Sequence (P23458 whole entry): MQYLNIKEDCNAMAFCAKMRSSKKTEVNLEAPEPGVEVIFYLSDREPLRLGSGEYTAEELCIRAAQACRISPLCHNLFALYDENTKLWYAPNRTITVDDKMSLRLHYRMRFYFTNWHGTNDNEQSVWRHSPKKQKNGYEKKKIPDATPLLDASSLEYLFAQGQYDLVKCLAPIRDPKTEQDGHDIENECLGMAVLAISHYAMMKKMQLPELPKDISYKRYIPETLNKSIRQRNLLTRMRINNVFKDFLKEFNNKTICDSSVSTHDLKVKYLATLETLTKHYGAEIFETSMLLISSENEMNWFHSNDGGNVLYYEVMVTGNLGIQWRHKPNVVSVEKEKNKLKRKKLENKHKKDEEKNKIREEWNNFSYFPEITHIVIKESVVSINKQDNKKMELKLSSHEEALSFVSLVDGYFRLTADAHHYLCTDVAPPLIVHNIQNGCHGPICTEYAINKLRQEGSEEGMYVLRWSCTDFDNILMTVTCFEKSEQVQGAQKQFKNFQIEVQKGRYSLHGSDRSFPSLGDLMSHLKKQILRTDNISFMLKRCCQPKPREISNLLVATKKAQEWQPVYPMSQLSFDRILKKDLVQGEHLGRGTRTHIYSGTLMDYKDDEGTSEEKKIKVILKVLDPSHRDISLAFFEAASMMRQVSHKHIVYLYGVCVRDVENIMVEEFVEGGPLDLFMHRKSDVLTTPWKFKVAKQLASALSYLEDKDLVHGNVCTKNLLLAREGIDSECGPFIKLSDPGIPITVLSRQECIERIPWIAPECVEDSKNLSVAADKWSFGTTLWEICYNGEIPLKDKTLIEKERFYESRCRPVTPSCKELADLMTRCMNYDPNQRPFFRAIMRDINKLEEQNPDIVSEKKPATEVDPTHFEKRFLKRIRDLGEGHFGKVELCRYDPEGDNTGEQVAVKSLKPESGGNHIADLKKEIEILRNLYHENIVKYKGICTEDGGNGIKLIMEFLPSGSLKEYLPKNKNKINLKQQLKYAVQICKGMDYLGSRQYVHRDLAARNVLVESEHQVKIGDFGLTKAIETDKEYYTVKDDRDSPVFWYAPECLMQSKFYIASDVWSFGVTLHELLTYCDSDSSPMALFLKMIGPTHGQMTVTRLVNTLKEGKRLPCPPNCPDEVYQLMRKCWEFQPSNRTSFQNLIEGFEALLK
Assay: Biochemical JAK1 kinase assay (LanthaScreen)
Conditions: not given
Outline: as §1

Row | SMILES | JAK 1 (pKi)
29 | C=CC(=O)N1CC(CCn2c(=O)ccc3cnc(Nc4ccc(C5CCN(C)CC5)cc4)nc32)C1 [Example 77] | E (E represents a pKi value of 7 or below (Ki of 100 nM or above))
30 | C=CC(=O)N1CC(CCn2c(=O)ccc3cnc(Nc4cnn(C5CCOCC5)c4)nc32)C1 [Example 81] | E (E represents a pKi value of 7 or below (Ki of 100 nM or above))
31 | C=CC(=O)N1CCN(CCn2c(=O)ccc3cnc(Nc4ccc(N5C[C@@H](C)N(C)[C@@H](C)C5)cc4)nc32)CC1 [Example 248] | E (E represents a pKi value of 7 or below (Ki of 100 nM or above))
32 | C=CC(=O)N1CCN(CCn2c(=O)ccc3cnc(Nc4ccc(N5C[C@@H](C)N(C)[C@@H](C)C5)cc4)nc32)[C@@H](C)C1 [Example 249] | E (E represents a pKi value of 7 or below (Ki of 100 nM or above))
33 | C=CC(=O)N1CCN(CCn2c(=O)ccc3cnc(Nc4cnn(C5CCOCC5)c4)nc32)[C@@H](C)C1 [Example 250] | E (E represents a pKi value of 7 or below (Ki of 100 nM or above))
34 | C=CC(=O)N1CCN(CCn2c(=O)ccc3cnc(Nc4ccc(N5CCN(C)[C@@H](C)C5)cc4)nc32)[C@@H](C)C1 [Example 251] | E (E represents a pKi value of 7 or below (Ki of 100 nM or above))
35 | C=CC(=O)N1CCN(CCn2c(=O)ccc3cnc(Nc4ccc(N5CCN(C)[C@@H](C)C5)nc4)nc32)[C@@H](C)C1 [Example 252] | E (E represents a pKi value of 7 or below (Ki of 100 nM or above))

Target: JAK2 (Homo sapiens (Human), UniProt O60674)
Sequence (O60674 whole entry): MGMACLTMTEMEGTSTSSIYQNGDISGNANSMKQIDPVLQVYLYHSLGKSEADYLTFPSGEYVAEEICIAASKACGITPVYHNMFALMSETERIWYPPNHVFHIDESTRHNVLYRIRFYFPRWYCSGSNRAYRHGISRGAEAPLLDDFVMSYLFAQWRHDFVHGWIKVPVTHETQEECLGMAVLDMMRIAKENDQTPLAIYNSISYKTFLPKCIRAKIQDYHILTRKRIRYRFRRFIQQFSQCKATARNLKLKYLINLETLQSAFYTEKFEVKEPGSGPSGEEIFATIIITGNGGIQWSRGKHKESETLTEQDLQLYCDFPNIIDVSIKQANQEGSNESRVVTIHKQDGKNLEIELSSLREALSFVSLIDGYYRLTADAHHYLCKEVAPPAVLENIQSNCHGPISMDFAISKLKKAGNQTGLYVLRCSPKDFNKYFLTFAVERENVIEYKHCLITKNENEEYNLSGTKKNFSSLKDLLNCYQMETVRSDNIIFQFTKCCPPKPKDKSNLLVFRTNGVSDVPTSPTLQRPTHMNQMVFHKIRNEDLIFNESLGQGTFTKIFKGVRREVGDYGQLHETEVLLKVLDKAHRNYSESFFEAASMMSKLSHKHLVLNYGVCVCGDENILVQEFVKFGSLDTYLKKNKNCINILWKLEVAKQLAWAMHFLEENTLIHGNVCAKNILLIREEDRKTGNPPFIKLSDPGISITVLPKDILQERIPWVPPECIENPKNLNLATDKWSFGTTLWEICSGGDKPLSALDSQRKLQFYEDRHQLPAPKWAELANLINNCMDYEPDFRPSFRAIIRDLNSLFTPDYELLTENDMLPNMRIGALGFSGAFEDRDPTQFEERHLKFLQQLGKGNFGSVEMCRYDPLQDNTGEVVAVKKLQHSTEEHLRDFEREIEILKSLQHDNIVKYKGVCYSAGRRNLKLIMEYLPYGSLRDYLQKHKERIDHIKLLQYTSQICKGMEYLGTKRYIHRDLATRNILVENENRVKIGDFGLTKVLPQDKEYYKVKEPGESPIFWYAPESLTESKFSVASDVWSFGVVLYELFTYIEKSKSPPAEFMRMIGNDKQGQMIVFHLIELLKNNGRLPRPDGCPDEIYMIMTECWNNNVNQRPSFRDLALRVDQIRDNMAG
Assay: Biochemical JAK2 kinase assay (LanthaScreen)
Conditions: not given
Outline: as §1

Row | SMILES | JAK 2 (pKi)
36 | C=CC(=O)N1CCN(CCn2c(=O)ccc3cnc(Nc4ccc(N5C[C@@H](C)N(C)[C@@H](C)C5)cc4)nc32)CC1 [Example 248] | E (E represents a pKi value of 7 or below (Ki of 100 nM or above))
37 | C=CC(=O)N1CCN(CCn2c(=O)ccc3cnc(Nc4ccc(N5C[C@@H](C)N(C)[C@@H](C)C5)cc4)nc32)[C@@H](C)C1 [Example 249] | E (E represents a pKi value of 7 or below (Ki of 100 nM or above))
38 | C=CC(=O)N1CCN(CCn2c(=O)ccc3cnc(Nc4cnn(C5CCOCC5)c4)nc32)[C@@H](C)C1 [Example 250] | E (E represents a pKi value of 7 or below (Ki of 100 nM or above))
39 | C=CC(=O)N1CCN(CCn2c(=O)ccc3cnc(Nc4ccc(N5CCN(C)[C@@H](C)C5)cc4)nc32)[C@@H](C)C1 [Example 251] | E (E represents a pKi value of 7 or below (Ki of 100 nM or above))
40 | C=CC(=O)N1CCN(CCn2c(=O)ccc3cnc(Nc4ccc(N5CCN(C)[C@@H](C)C5)nc4)nc32)[C@@H](C)C1 [Example 252] | E (E represents a pKi value of 7 or below (Ki of 100 nM or above))

Source: US11697648B2, “Fused pyrimidine pyridinone compounds as JAK inhibitors” (THERAVANCE BIOPHARMA R&D IP, LLC, priority 2019, dated 2023)
